# Data reported in ChEMBL document CHEMBL5325401, “Computer-aided identification, synthesis, and biological evaluation of DNA polymerase η inhibitors for the treatment of cancer” (Eur J Med Chem, 2023).
# How the values were obtained:
# [1] = Kinetic solubility of compound in neutral buffer at pH 7.4 at 250 uM measured after 24 hrs by UPLC/MS analysis; type: physicochemical; settings: read-out: Kinetic_solubility
# DNA polymerase eta = biological target: T1, DNA polymerase eta (Homo sapiens, UniProt Q9Y253); assay: (§1) Inhibition of C-terminal 6xHis-tagged human DNA polymerase eta (1 to 511 residues) expressed in Escherichia coli BL21 DE3 using 5'-IRD700-GCAGGTCGACTCCAAAG-3' primer/ 5'-TCGGTACCGGGTTAGCCTTTGGAGTCGACCTGC-3' template as DNA substrate incubated for 60 mins in presence of Mg2+ by bromophenol blue staining based assay
# T1 sequence (Q9Y253 whole entry): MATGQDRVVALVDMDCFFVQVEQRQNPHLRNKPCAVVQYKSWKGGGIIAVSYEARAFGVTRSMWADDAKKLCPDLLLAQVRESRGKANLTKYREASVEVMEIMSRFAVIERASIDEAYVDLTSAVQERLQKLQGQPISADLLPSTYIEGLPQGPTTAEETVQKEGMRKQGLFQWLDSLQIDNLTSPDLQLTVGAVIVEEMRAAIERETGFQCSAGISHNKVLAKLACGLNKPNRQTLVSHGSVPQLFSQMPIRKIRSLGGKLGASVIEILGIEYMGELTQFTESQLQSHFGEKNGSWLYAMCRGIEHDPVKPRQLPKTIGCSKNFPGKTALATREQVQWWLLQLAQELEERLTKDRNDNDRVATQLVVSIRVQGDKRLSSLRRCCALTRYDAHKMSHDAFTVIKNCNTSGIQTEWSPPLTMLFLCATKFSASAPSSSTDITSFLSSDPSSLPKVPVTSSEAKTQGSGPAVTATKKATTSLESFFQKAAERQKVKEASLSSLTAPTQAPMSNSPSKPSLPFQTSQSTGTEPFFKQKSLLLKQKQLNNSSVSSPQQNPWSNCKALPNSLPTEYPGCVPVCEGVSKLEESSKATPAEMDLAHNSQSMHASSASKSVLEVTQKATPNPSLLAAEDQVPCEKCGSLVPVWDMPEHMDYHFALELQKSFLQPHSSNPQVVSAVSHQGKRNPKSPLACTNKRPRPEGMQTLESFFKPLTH
# [2] = Metabolic stability in mouse plasma assessed as half life at 2 uM incubated upto 120 mins by UPLC/MS analysis; type: ADME, cell-free
# [3] = Metabolic stability in mouse liver microsome assessed as half life at 4.6 uM incubated upto 60 mins by LC/MS-MS analysis; type: ADME; settings: liver microsomes
# [4] = biological target: T2, DNA polymerase eta (Homo sapiens) (UniProt Q9Y253); assay: as §1, with “substrate at 100 uM” for “substrate”, “assay relative to control” for “assay”
# T2 sequence (whole entry): T1 sequence (Q9Y253 whole entry)
# [5] = biological target: T2, DNA polymerase eta (Homo sapiens); assay: as §1, with “substrate at 1 uM” for “substrate”, “assay relative to control” for “assay”
Compound,IC50 (DNA polymerase eta) [µM],other results
O=c1cc(-c2ccc(O)cc2)oc2cc(O)cc(O)c12 [APIGENIN],22.2,"solubility kinetic at 24 h, 250 µM [1]: 13 µM; half-life at 2 µM [2]: > 2 h; half-life at 4.6 µM [3]: 0.133 h"
COc1ccc(-c2cc(=O)c3c(OC)c(OC)c(OC)cc3o2)cc1OC [SINENSETIN],> 100,–
CCOc1c(-c2ccc(O)c(O)c2)oc2cc(O)cc(O)c2c1=O,33.5,–
CCCCc1c(-c2ccc(O)c(O)c2)oc2cc(O)cc(O)c2c1=O,> 100,–
O=c1cc(/C=C/c2ccc(O)c(O)c2)oc2cccc(O)c12,> 100,–
O=c1cc(Cc2ccc(O)c(O)c2)oc2cccc(O)c12,> 100,–
O=c1cc(-c2ccc(O)c(O)c2)oc2cc(F)cc(O)c12,13.8,"solubility kinetic at 24 h, 250 µM [1]: < 1 µM; half-life at 2 µM [2]: > 2 h; half-life at 4.6 µM [3]: > 1 h"
O=c1cc(-c2ccc(O)c(O)c2)oc2cccc(O)c12,8.7,"solubility kinetic at 24 h, 250 µM [1]: 9 µM; half-life at 2 µM [2]: > 2 h; half-life at 4.6 µM [3]: > 1 h"
O=c1c(O)c(-c2ccc(O)cc2)oc2cc(O)cc(O)c12 [KAEMPFEROL],12.7,–
COc1cccc2oc(-c3ccc(O)cc3C)cc(=O)c12,98.3,–
COc1cc(O)c2c(=O)cc(-c3ccc4c(c3)OC(F)(F)O4)oc2c1,> 100,–
COc1cccc2oc(-c3ccccc3F)cc(=O)c12,> 100,–
O=C(O)c1cc(-c2cc(=O)c3c(O)cc(O)cc3o2)ccc1O,7.7,–
O=c1cc(-c2ccc(O)c(O)c2)oc2cc(O)cc(O)c12 [LUTEOLIN],12.7,"inhibition [4]: 95%; solubility kinetic at 24 h, 250 µM [1]: 21 µM; inhibition [5]: 49.9%; half-life at 2 µM [2]: > 2 h; half-life at 4.6 µM [3]: > 1 h"
Cc1cc(=O)c2c(CC(=O)CC(O)CC(=O)O)cccc2o1 (racemic),–,inhibition [4]: 100%; inhibition [5]: 22.8%
COc1cc(O)cc2oc(-c3ccc(O)c(O)c3)cc(=O)c12,10.2,"solubility kinetic at 24 h, 250 µM [1]: 87 µM; half-life at 2 µM [2]: > 2 h; half-life at 4.6 µM [3]: > 1 h"
O=c1c(OCCO)c(-c2ccc(O)c(O)c2)oc2cc(O)cc(O)c12,87.5,–

Compound,IC50 (DNA polymerase eta) [µM],other results
CCCCOc1c(-c2ccc(O)c(O)c2)oc2cc(O)cc(O)c2c1=O,62.4,–
Cc1c(-c2ccc(O)c(O)c2)oc2cc(O)cc(O)c2c1=O,84.6,–
O=C(O)CCc1cc(=O)c2c(O)cc(O)cc2o1,> 100,–
CCCc1c(-c2ccc(O)c(O)c2)oc2cc(O)cc(O)c2c1=O,87.1,–
COc1c(-c2ccc(O)cc2)oc2cc(O)cc(O)c2c1=O [ISOKAEMPFERIDE],16.1,–
O=c1cc(-c2ccc3c(c2)OC(F)(F)O3)oc2cc(O)cc(O)c12,> 100,–
O=c1cc(-c2ccc(O)c(O)c2)oc2cc(O)ccc12,27,–
COc1cccc2oc(-c3ccccc3C)cc(=O)c12,> 100,–
COc1cccc2oc(-c3ccccc3C(F)(F)F)cc(=O)c12,> 100,–
O=c1cc(-c2ccccc2)oc2cc(O)cc(O)c12 [CHRYSIN],14.8,–
O=C(Nc1ccc(O)c(O)c1)c1cc(=O)c2c(O)cccc2o1,26.5,–
O=c1c(-c2ccc(O)cc2)coc2cc(O)cc(O)c12 [GENISTEIN],92.4,–
O=c1cc(-c2cccc(O)c2)oc2cc(O)cc(O)c12,5,"solubility kinetic at 24 h, 250 µM [1]: 6 µM; half-life at 2 µM [2]: > 2 h; half-life at 4.6 µM [3]: 0.183 h"
O=c1cc(-c2ccccc2)oc2cc(O)c(O)c(O)c12 [BAICALEIN],11.8,"solubility kinetic at 24 h, 250 µM [1]: 12 µM; half-life at 2 µM [2]: > 2 h; half-life at 4.6 µM [3]: 0.683 h"
O=c1cc(CCc2ccc(O)c(O)c2)oc2cccc(O)c12,> 100,–
O=c1cc(-c2ccc(O)c(O)c2)oc2ccccc12,30.5,–
O=c1c(O)c(-c2ccc(O)c(O)c2)oc2cc(O)cc(O)c12 [QUERCETIN],15.8,"solubility kinetic at 24 h, 250 µM [1]: 16 µM; half-life at 2 µM [2]: 0.117 h; half-life at 4.6 µM [3]: > 1 h"
